Earlier results on 4 molecules are cited in PMC8513935.

The nature of series [1]: log P octanol/water from commercial databases, averaged (the ESI). To be noted: Octanol (wet), 25 C.
The nature of series [2]: experimental, compiled by the authors from the literature (the ESI cites the sources).
The nature of series [3]: derived by the authors as gas->solvent minus gas->water (a hypothetical dry solvent; the ESI), not a two-phase measurement.

As to `CC(C)C(C)C(C)C`, the log K of transfer, water to solvent was 4.8 log10 K in series [1]; 5.07 log10 K in series [3] (1,2-Dichloroethane, 25 C); 4.91 log10 K in series [3] (Acetone, 25 C); 4.39 log10 K in series [3] (Acetonitrile, 25 C); 4.98 log10 K in series [3] (Butan-1-ol, 25 C); 5.1 log10 K in series [3] (Butanone, 25 C). In addition, the log K of transfer, water to solvent in series [3] (Butyronitrile, 25 C) is 4.89 log10 K; in series [3] (CCl4, 25 C) it was 5.6 log10 K; in series [3] (Chlorobenzene, 25 C) it was 5.57 log10 K; in series [3] (Chloroform, 25 C), 5.51 log10 K; in series [3] (Cyclohexanone, 25 C), 5.03 log10 K; in series [3] (Dichloromethane, 25 C), 5.35 log10 K. Further, the log K of transfer, water to solvent in series [3] (Ethanol, 25 C) is 4.82 log10 K; in series [3] (Hexadecane, 25 C) it was 5.36 log10 K; in series [3] (Hexane, 25 C), 5.56 log10 K; in series [3] (Methanol, 25 C), 4.54 log10 K; in series [3] (Perfluoroalkane, 25 C), 4.33 log10 K; in series [3] (Propan-1-ol, 25 C), 4.83 log10 K. In addition, the log K of transfer, water to solvent in series [3] (Propan-2-ol, 25 C) was 4.83 log10 K; in series [3] (Propionitrile, 25 C), 4.71 log10 K; in series [3] (Tetrahydrofuran, 25 C), 5.47 log10 K. Further, the log K of transfer, gas to solvent in series [2] (1,2-Dichloroethane, 25 C) is 3.19 log10 K; in series [2] (Acetonitrile, 25 C), 2.51 log10 K; in series [2] (Butan-1-ol, 25 C), 3.1 log10 K; in series [2] (Butanone, 25 C), 3.22 log10 K; in series [2] (Butyronitrile, 25 C), 3.01 log10 K; in series [2] (CCl4, 25 C) it was 3.72 log10 K. For the same molecule, the log K of transfer, gas to solvent is 3.69 log10 K in series [2] (Chlorobenzene, 25 C); 3.63 log10 K in series [2] (Chloroform, 25 C); 3.15 log10 K in series [2] (Cyclohexanone, 25 C); 3.47 log10 K in series [2] (Dichloromethane, 25 C); 2.94 log10 K in series [2] (Ethanol, 25 C); 3.48 log10 K in series [2] (Hexadecane, 25 C). In addition, the log K of transfer, gas to solvent in series [2] (Hexane, 25 C) is 3.68 log10 K; in series [2] (Methanol, 25 C), 2.66 log10 K; in series [2] (Perfluoroalkane, 25 C), 2.45 log10 K; in series [2] (Propan-1-ol, 25 C), 2.95 log10 K; in series [2] (Propan-2-ol, 25 C), 2.95 log10 K; in series [2] (Propanone, 25 C) it was 3.03 log10 K. The log K of transfer, gas to solvent was 2.83 log10 K in series [2] (Propionitrile, 25 C); 3.59 log10 K in series [2] (Tetrahydrofuran, 25 C); -1.88 log10 K in series [2] (Water, 25 C).

As for `CC(C)CC(C)(C)C`, the log K of transfer, water to solvent in series [1] is 4.8 log10 K; in series [3] (2-Methylpropan-2-ol, 25 C) it was 4.76 log10 K; in series [3] (Butanone, 25 C) it was 5.09 log10 K; in series [3] (Decan-1-ol, 25 C) it was 4.98 log10 K; in series [3] (Hexadecane, 25 C), 5.22 log10 K; in series [3] (Hexan-1-ol, 25 C) it was 5.1 log10 K. In addition, the log K of transfer, water to solvent in series [3] (Pentan-1-ol, 25 C) was 4.97 log10 K; in series [3] (Propan-1-ol, 25 C), 4.81 log10 K; in series [3] (Propan-2-ol, 25 C), 4.82 log10 K; in series [3] (Tetrahydrofuran, 25 C) it was 5.53 log10 K. Moreover, the log K of transfer, gas to solvent is 2.64 log10 K in series [2] (2-Methylpropan-2-ol, 25 C); 2.97 log10 K in series [2] (Butanone, 25 C); 2.86 log10 K in series [2] (Decan-1-ol, 25 C); 3.1 log10 K in series [2] (Hexadecane, 25 C); 2.98 log10 K in series [2] (Hexan-1-ol, 25 C); 2.85 log10 K in series [2] (Pentan-1-ol, 25 C). The log K of transfer, gas to solvent in series [2] (Propan-1-ol, 25 C) is 2.69 log10 K; in series [2] (Propan-2-ol, 25 C), 2.7 log10 K; in series [2] (Tetrahydrofuran, 25 C), 3.41 log10 K; in series [2] (Water, 25 C) it was -2.12 log10 K.

`CCCCC(C)=O`: the log K of transfer, water to solvent in series [1] is 1.38 log10 K; in series [3] (Benzene, 25 C), 1.81 log10 K; in series [3] (CCl4, 25 C), 1.52 log10 K; in series [3] (Chlorobenzene, 25 C) it was 1.87 log10 K; in series [3] (Cyclohexane, 25 C), 1.02 log10 K; in series [3] (Hexadecane, 25 C) it was 0.876 log10 K. Besides, the log K of transfer, water to solvent in series [3] (Hexane, 25 C) was 1.02 log10 K; in series [3] (Methanol, 25 C) it was 1.41 log10 K; in series [3] (Octan-1-ol(dry), 25 C), 1.27 log10 K; in series [3] (Toluene, 25 C), 1.7 log10 K. Also, the log K of transfer, gas to solvent in series [2] (Benzene, 25 C) was 4.22 log10 K; in series [2] (CCl4, 25 C), 3.93 log10 K; in series [2] (Chlorobenzene, 25 C) it was 4.28 log10 K; in series [2] (Cyclohexane, 25 C), 3.42 log10 K; in series [2] (Hexadecane, 25 C), 3.28 log10 K; in series [2] (Hexane, 25 C) it was 3.43 log10 K. Moreover, the log K of transfer, gas to solvent in series [2] (Methanol, 25 C) was 3.82 log10 K; in series [2] (Octan-1-ol, 25 C), 3.68 log10 K; in series [2] (Toluene, 25 C), 4.11 log10 K; in series [2] (Water, 25 C), 2.41 log10 K.

`Cc1cccc(C)n1`: the log K of transfer, water to solvent in series [1] is 1.68 log10 K; in series [3] (Benzene, 25 C) it was 1.32 log10 K; in series [3] (Chloroform, 25 C), 2.31 log10 K; in series [3] (Cyclohexane, 25 C) it was 0.67 log10 K; in series [3] (Hexadecane, 25 C) it was 0.39 log10 K. In addition, the log K of transfer, gas to solvent in series [2] (Benzene, 25 C) is 4.69 log10 K; in series [2] (Chloroform, 25 C) it was 5.68 log10 K; in series [2] (Cyclohexane, 25 C) it was 4.04 log10 K; in series [2] (Hexadecane, 25 C) it was 3.76 log10 K; in series [2] (Water, 25 C) it was 3.37 log10 K.
